Test results published in US10934310B2, “Inhibitors of Bruton's tyrosine kinase and method of their use” (JANSSEN PHARMACEUTICA NV, priority 2015, dated 2021).

Biological target: unphosphorylated-BTK kinase domain (UP-BTK), GST-tagged human BTK (389-659aa) (Homo sapiens (Human), UniProt Q06187)
Assay: BTK Kinase Lanthascreen Binding Assay
Conditions: for BTK_I_binding pIC50: pIC50 = negative log of the IC50 in molar; for IC50: read-out: BTK_I_binding pIC50 (converted)
Procedure: BTK Kinase Lanthascreen Binding Assay:
A BTK kinase lanthascreen binding assay monitors compound binding to unphosphorylated-BTK kinase domain (UP-BTK), by competing with a fluorescent labeled tracer. […] Data were analyzed using Xlfit™ version 5.3 from ID Business Solutions (Guildford), Microsoft Excel add-in. pIC50 refers to the negative log of the IC50 in molar.

[1] = Lanthascreen binding, 60 minutes incubation
[2] = compound, 50 nM Tracer 236, 2 nM anti-GST antibody, 60 minutes

Sequence of unphosphorylated-BTK kinase domain (UP-BTK), GST-tagged human BTK (389-659aa) (Q06187 389-659): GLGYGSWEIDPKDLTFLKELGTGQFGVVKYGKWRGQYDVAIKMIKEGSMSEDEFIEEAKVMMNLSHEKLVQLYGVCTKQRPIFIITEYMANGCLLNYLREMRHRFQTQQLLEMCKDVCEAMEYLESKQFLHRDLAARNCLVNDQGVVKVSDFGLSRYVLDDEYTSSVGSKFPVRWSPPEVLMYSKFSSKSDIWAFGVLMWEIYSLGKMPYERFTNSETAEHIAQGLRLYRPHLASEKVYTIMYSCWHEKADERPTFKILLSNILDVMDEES

SMILES | BTK_I_binding pIC50 [2] | also measured
C=CC(=O)N[C@@H]1CCC[C@@H]1NC(=O)c1sc2nccc3c2c1NC(=O)N3c1ccc(Oc2ccccc2)cc1C [Example 459, N-((1S,2R)-2-Acrylamidocyclopentyl)-5-(2-methyl-4-phenoxyphenyl)-4-oxo-4,5-dihydro-3H-1-thia-3,5,8-triazaacenaphthylene-2-carboxamide] | – | BTK_I_binding pIC50 [1]: 7.13
C=CC(=O)N[C@H]1CC[C@@H](NC(=O)c2sc3nccc4c3c2NC(=O)N4c2ccc(Oc3ccccc3)cc2)C1 [Example 121, N-((1R,3S)-3-Acrylamidocyclopentyl)-4-oxo-5-(4-phenoxyphenyl)-4,5-dihydro-3H-1-thia-3,5,8-triazaacenaphthylene-2-carboxamide] | 6.57 | –
C=CC(=O)N[C@H]1CCCC[C@H]1NC(=O)c1sc2nccc3c2c1NC(=O)N3c1cnc(OCC(C)C)cc1C (single isomer, unassigned) [Example 352, N-((1R,2S)-2-Acrylamidocyclohexyl)-5-(*R)-(6-isobutoxy-4-methylpyridin-3-yl)-4-oxo-4,5-dihydro-3H-1-thia-3,5,8-triazaacenaphthylene-2-carboxamide] | – | IC50: > 1000 nM
C=CC(=O)N[C@H]1CC[C@H](NC(=O)c2sc3nccc4c3c2NC(=O)N4c2ccnc(-c3ccccc3)c2)C1 [Example 282, N-((1S,3S)-3-Acrylamidocyclopentyl)-4-oxo-5-(2-phenylpyridin-4-yl)-4,5-dihydro-3H-1-thia-3,5,8-triazaacenaphthylene-2-carboxamide] | – | IC50: > 1000 nM
Cc1cc(Oc2ccccc2)ccc1N1C(=O)Nc2c(C(=O)N[C@H]3CC[C@@H](NC(=O)/C(C#N)=C/C4CC4)CC3)sc3nccc1c23 [Example 19, N-((1S,4S)-4-((E)-2-Cyano-3-cyclopropylacrylamido)cyclohexyl)-5-(2-methyl-4-phenoxyphenyl)-4-oxo-4,5-dihydro-3H-1-thia-3,5,8-triazaacenaphthylene-2-carboxamide] | 6.63 | –
Cc1cc(Oc2ccccc2)ccc1N1C(=O)Nc2c(C(=O)N[C@H]3CC[C@H](NC(=O)CN(C)C)C3)sc3nccc1c23 [Example 245, N-((1S,3S)-3-(2-(Dimethylamino)acetamido)cyclopentyl)-5-(2-methyl-4-phenoxyphenyl)-4-oxo-4,5-dihydro-3H-1-thia-3,5,8-triazaacenaphthylene-2-carboxamide] | 6.73 | –
N[C@H]1CCCC[C@H]1NC(=O)c1sc2nccc3c2c1NC(=O)N3c1ccc(Oc2ccccc2)cc1 [Example 126, N-((1R,2S)-2-Aminocyclohexyl)-4-oxo-5-(4-phenoxyphenyl)-4,5-dihydro-3H-1-thia-3,5,8-triazaacenaphthylene-2-carboxamide] | 7.13 | –
C=CC(=O)N[C@@H]1CC[C@@H](NC(=O)c2sc3nccc4c3c2NC(=O)N4c2cnc(Oc3ccccc3)cc2C)C1 (single isomer, unassigned) [Example 329, N-((1*R,3*R)-3-Acrylamidocyclopentyl)-5-(*S)-(4-methyl-6-phenoxypyridin-3-yl)-4-oxo-4,5-dihydro-3H-1-thia-3,5,8-triazaacenaphthylene-2-carboxamide] | – | BTK_I_binding pIC50 [1]: 6.85
O=C(N[C@@H]1CCC[C@@H]1O)c1sc2nccc3c2c1NC(=O)N3c1ccc(Oc2ccccc2)cc1 [Example 140, N-((1R,2S)-2-Hydroxycyclopentyl)-4-oxo-5-(4-phenoxyphenyl)-4,5-dihydro-3H-1-thia-3,5,8-triazaacenaphthylene-2-carboxamide] | 7.15 | –
Cc1cc(Oc2ccccc2)ccc1N1C(=O)Nc2c(C(=O)N[C@H]3CC[C@@H](NC(=O)/C=C/CN(C)C)CC3)sc3nccc1c23 [Example 77, N-((1S,4S)-4-((E)-4-(Dimethylamino)but-2-enamido)cyclohexyl)-5-(2-methyl-4-phenoxyphenyl)-4-oxo-4,5-dihydro-3H-1-thia-3,5,8-triazaacenaphthylene-2-carboxamide] | 6.61 | –
CNC1CCCCC1NC(=O)c1sc2nccc3c2c1NC(=O)N3c1ccc(Oc2ccccc2)cc1C (stereo not drawn) [Example 31, 5-(2-Methyl-4-phenoxyphenyl)-N-(2-(methylamino)cyclohexyl)-4-oxo-4,5-dihydro-3H-1-thia-3,5,8-triazaacenaphthylene-2-carboxamide] | 6.66 | –
C=CC(=O)N[C@@H]1CCC[C@H]1NC(=O)c1sc2nccc3c2c1NC(=O)N3c1ccnc(C(C)C)c1 [Example 337, N-((1R,2R)-2-Acrylamidocyclopentyl)-5-(2-isopropylpyridin-4-yl)-4-oxo-4,5-dihydro-3H-1-thia-3,5,8-triazaacenaphthylene-2-carboxamide] | – | BTK_I_binding pIC50 [1]: 6.42
